Measured values from PubChem BioAssay AID192 (DTP/NCI, 2004).
“And” between values parts separate entries of the source, which are not always exact repeats. Equal values may be shown once. Inconclusive results and toxic doses are left out. How the source made its calls: active means survival T/C of 150% or more; inactive means T/C below 125% in these data.

Tested on: BDF1 mice, B16 melanoma ip, median survival T/C
Experiment: NCI In Vivo Anticancer Drug Screen. Data for tumor model B16 Melanoma (intraperitoneal) in B6D2F1 (BDF1) mice
Conditions: endpoint: median survival time, higher = longer survival
How it was run: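 Each result divides a survival or tumor-size measurement in the compound-treated group by the same measurement in the vehicle group.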

[1] = dose: 1.5 mg/kg/injection, schedule: Q01DX009 (ip), vehicle: saline
[2] = dose: 1.56 mg/kg/injection, schedule: Q01DX009 (ip), vehicle: saline with Tween-80
[3] = dose: 3.13 mg/kg/injection, schedule: Q01DX009 (ip), vehicle: saline with Tween-80
[4] = dose: 6.25 mg/kg/injection, schedule: Q01DX009 (ip), vehicle: saline with Tween-80
[5] = dose: 12.0 mg/kg/injection, schedule: Q01DX009 (ip), vehicle: saline
[6] = dose: 12.5 mg/kg/injection, schedule: Q01DX009 (ip), vehicle: saline with Tween-80
[7] = dose: 100.0 mg/kg/injection, schedule: Q04DX003 (ip), vehicle: saline
[8] = dose: 200.0 mg/kg/injection, schedule: Q04DX003 (ip), vehicle: saline
[9] = dose: 400.0 mg/kg/injection, schedule: Q04DX003 (ip), vehicle: saline
[10] = dose: 3.12 mg/kg/injection, schedule: Q01DX009 (ip), vehicle: saline
[11] = dose: 6.25 mg/kg/injection, schedule: Q01DX009 (ip), vehicle: saline
[12] = dose: 12.5 mg/kg/injection, schedule: Q01DX009 (ip), vehicle: saline
[13] = dose: 100.0 mg/kg/injection, schedule: Q01DX009 (ip), vehicle: saline with Tween-80

Measured: T/C

CC(=O)O[C@H]1C(=O)O[C@@H]2C[C@H]3C(C)=CC(=O)[C@@H](O)[C@]3(C)[C@H]3[C@@]4(O)OC[C@]32[C@@H]1[C@@H](C)[C@H]4O
active: [5] 164 % of control
inactive: dose: 0.39 mg/kg/injection, schedule: Q01DX009 (ip), vehicle: saline with Tween-80 101 % of control | dose: 0.78 mg/kg/injection, schedule: Q01DX009 (ip), vehicle: saline with Tween-80 105 % of control | dose: 1.5 mg/kg/injection, schedule: Q01DX009 (ip), vehicle: Klucel (hydroxypropylcellulose) (HPC) 112 % of control | [1] 112 % of control | [2] 96 % of control | [3] 107 % of control | [4] 107 % of control | [6] 118 % of control

CCC(C)CC(=O)O (stereo not drawn)
inactive: dose: 100.0 mg/kg/injection, schedule: Q01DX009 (ip), vehicle: saline 97 % of control | dose: 200.0 mg/kg/injection, schedule: Q01DX009 (ip), vehicle: saline 97 % of control | dose: 400.0 mg/kg/injection, schedule: Q01DX009 (ip), vehicle: saline 93 % of control

CN(C)c1ccc(N=C2C=CC(=O)C=C2)cc1
inactive: [1] 111 % of control | dose: 3.0 mg/kg/injection, schedule: Q01DX009 (ip), vehicle: saline 98 % of control | dose: 6.0 mg/kg/injection, schedule: Q01DX009 (ip), vehicle: saline 105 % of control

C#CCOCC(O)CN (stereo not drawn)
inactive: [7] 104 % of control | [8] 100 % of control | [9] 102 % of control

CC(CN(C)C)CN1c2ccccc2Sc2ccc(C(F)(F)F)cc21 (stereo not drawn)
inactive: dose: 0.78 mg/kg/injection, schedule: Q01DX009 (ip), vehicle: saline 109 % of control | dose: 1.56 mg/kg/injection, schedule: Q01DX009 (ip), vehicle: saline 105 % of control | [10] 116 % of control | [11] 103 % of control | [12] 103 % of control

CC1(C)N=C(N)N=C(N)N1c1ccc(CCCCc2cccc(S(=O)(=O)F)c2)c(Cl)c1
inactive: dose: 8.0 mg/kg/injection, schedule: Q01DX009 (ip), vehicle: saline 108 % of control | [5] 116 % of control | dose: 18.0 mg/kg/injection, schedule: Q01DX009 (ip), vehicle: saline 118 % of control | dose: 27.0 mg/kg/injection, schedule: Q01DX009 (ip), vehicle: saline 124 % of control

NC(=S)c1cn(C2OC(CO)C(O)C2O)c2ncnc(N)c12 (stereo not drawn)
inactive: dose: 2.5 mg/kg/injection, schedule: Q01DX009 (ip), vehicle: saline 89 % of control | dose: 5.0 mg/kg/injection, schedule: Q01DX009 (ip), vehicle: saline 91 % of control

O=C(O)C1C2CCC1C2 (stereo not drawn)
inactive: dose: 25.0 mg/kg/injection, schedule: Q04DX003 (ip), vehicle: saline with Tween-80 103 % of control | dose: 50.0 mg/kg/injection, schedule: Q04DX003 (ip), vehicle: saline with Tween-80 102 % of control | dose: 100.0 mg/kg/injection, schedule: Q04DX003 (ip), vehicle: saline with Tween-80 97 % of control and 102 % of control

Cc1ccc(S(=O)(=O)NC(=S)S)cc1
inactive: [6] 88 % of control | dose: 25.0 mg/kg/injection, schedule: Q01DX009 (ip), vehicle: saline with Tween-80 98 % of control and 122 % of control | dose: 50.0 mg/kg/injection, schedule: Q01DX009 (ip), vehicle: saline with Tween-80 97 % of control | [13] 92 % of control and 122 % of control

NNC(=O)c1cccc(C(=O)NN)c1
inactive: [13] 97 % of control | dose: 200.0 mg/kg/injection, schedule: Q01DX009 (ip), vehicle: saline with Tween-80 100 % of control | dose: 400.0 mg/kg/injection, schedule: Q01DX009 (ip), vehicle: saline with Tween-80 97 % of control

O=S(=O)(O)O.[O]=[V]
inactive: [2] 87 % of control | [3] 97 % of control | [4] 94 % of control

OCCN1CCN(CCCN2c3ccccc3C=Cc3ccccc32)CC1
inactive: [10] 97 % of control | dose: 3.12 mg/kg/injection, schedule: Q04DX003 (ip), vehicle: saline 105 % of control | [11] 110 % of control | [12] 100 % of control | dose: 12.5 mg/kg/injection, schedule: Q04DX003 (ip), vehicle: saline 107 % of control | dose: 25.0 mg/kg/injection, schedule: Q01DX009 (ip), vehicle: saline 95 % of control | dose: 25.0 mg/kg/injection, schedule: Q04DX003 (ip), vehicle: saline 122 % of control | dose: 50.0 mg/kg/injection, schedule: Q01DX009 (ip), vehicle: saline 95 % of control | dose: 50.0 mg/kg/injection, schedule: Q04DX003 (ip), vehicle: saline 115 % of control

O=P(N1CCOCC1)(N1CC1)N1CC1
inactive: [11] 115 % of control | [12] 118 % of control

CC(=O)CC(=O)Nc1ncccc1C
inactive: dose: 25.0 mg/kg/injection, schedule: Q01DX009 (ip), vehicle: carboxymethylcellulose (CMC) 111 % of control | dose: 50.0 mg/kg/injection, schedule: Q01DX009 (ip), vehicle: carboxymethylcellulose (CMC) 106 % of control | dose: 100.0 mg/kg/injection, schedule: Q01DX009 (ip), vehicle: carboxymethylcellulose (CMC) 107 % of control

Cc1c(Cl)cccc1NC(=O)Nc1ccccc1Cl
inactive: dose: 75.0 mg/kg/injection, schedule: Q01DX009 (ip), vehicle: Klucel (hydroxypropylcellulose) (HPC) 106 % of control | dose: 150.0 mg/kg/injection, schedule: Q01DX009 (ip), vehicle: Klucel (hydroxypropylcellulose) (HPC) 95 % of control

CC(C)NC(=O)OCc1c(COC(=O)NC(C)C)c(-c2ccc(Cl)c(Cl)c2)n2c1CCC2
active: dose: 4.69 mg/kg/injection, schedule: Q01DX009 (ip), vehicle: saline with Tween-80 183 % of control | dose: 9.38 mg/kg/injection, schedule: Q01DX009 (ip), vehicle: other 169 % of control | dose: 9.38 mg/kg/injection, schedule: Q01DX009 (ip), vehicle: saline with Tween-80 173 % of control | dose: 12.5 mg/kg/injection, schedule: Q01DX009 (ip), vehicle: distilled water + Tween-80 168 % of control | dose: 14.4 mg/kg/injection, schedule: Q01DX009 (ip), vehicle: distilled water + Tween-80 179 % of control | dose: 18.75 mg/kg/injection, schedule: Q01DX009 (ip), vehicle: other 197 % of control | dose: 18.75 mg/kg/injection, schedule: Q01DX009 (ip), vehicle: saline with Tween-80 239 % of control | dose: 25.0 mg/kg/injection, schedule: Q01DX009 (ip), vehicle: distilled water + Tween-80 200 % of control | dose: 37.5 mg/kg/injection, schedule: Q01DX009 (ip), vehicle: saline with Tween-80 245 % of control | dose: 75.0 mg/kg/injection, schedule: Q01DX009 (ip), vehicle: saline with Tween-80 215 % of control
inactive: dose: 1.56 mg/kg/injection, schedule: Q01DX009 (ip), vehicle: distilled water + Tween-80 102 % of control | dose: 2.34 mg/kg/injection, schedule: Q01DX009 (ip), vehicle: other 123 % of control | dose: 3.11 mg/kg/injection, schedule: Q01DX009 (ip), vehicle: distilled water + Tween-80 118 % of control | dose: 3.12 mg/kg/injection, schedule: Q01DX009 (ip), vehicle: distilled water + Tween-80 120 % of control | dose: 40.0 mg/kg/injection, schedule: Q01DX009 (ip), vehicle: distilled water + Tween-80 103 % of control | dose: 50.0 mg/kg/injection, schedule: Q01DX009 (ip), vehicle: distilled water + Tween-80 100 % of control

COC(=O)C1C2CC3c4[nH]c5ccc(OC)cc5c4CCN3CC2CC(OC(=O)c2cc(OC)c(OC)c(OC)c2)C1OC (stereo not drawn)
inactive: dose: 0.17 mg/kg/injection, schedule: Q01DX009 (ip), vehicle: Klucel (hydroxypropylcellulose) (HPC) 88 % of control | dose: 0.35 mg/kg/injection, schedule: Q01DX009 (ip), vehicle: Klucel (hydroxypropylcellulose) (HPC) 110 % of control | dose: 1.42 mg/kg/injection, schedule: Q01DX009 (ip), vehicle: Klucel (hydroxypropylcellulose) (HPC) 91 % of control | dose: 2.85 mg/kg/injection, schedule: Q01DX009 (ip), vehicle: Klucel (hydroxypropylcellulose) (HPC) 89 % of control | dose: 22.81 mg/kg/injection, schedule: Q01DX009 (ip), vehicle: Klucel (hydroxypropylcellulose) (HPC) 100 % of control | dose: 45.62 mg/kg/injection, schedule: Q01DX009 (ip), vehicle: Klucel (hydroxypropylcellulose) (HPC) 98 % of control

CC(C)(O)C(I)C[n+]1ccccc1 (stereo not drawn)
inactive: [7] 109 % of control | [8] 101 % of control | [9] 114 % of control
